Experimental data: patent US6951953B2, “Tumor selective and biodegradable polyphosphazene-platinum(II) conjugate antitumor agent, and preparation method thereof” (EWHA Womans University, priority 2003, dated 2005)
pIC50: −log10 of the molar value. Like-named read-outs stand apart in the source and are kept apart here.

How the values were obtained:
leukemia L1210 cell line [1] = conditions: read-out: In vitro (ID50)
leukemia L1210 cell line [2] = system: leukemia L1210 cell line
[3] = system: gastric tumor cell line (YCC-3); test: In vivo xenograft test against a gastric tumor cell line (YCC-3); conditions: YCC-3 xenograft in nu/nu mice; for The tumor tissue size after injection of an antitumor agent: intraperitoneal; for tumor tissue growth rate / inhibition effect on it (in words): versus control group / cisplatin, after 60 days from injection
Procedure: The in vivo sensitivity of the present conjugate drug against a gastric tumor cell line (YCC-3) was assayed using nu/nu mice (6-8 weeks old, 20-25 g). After being treated with 0.25% Trypsin-EDTA, the cultivated tumor cells were centrifuged in PBS solution for 5 minutes. This process was repeated three or more times, and then the tumor cells were made into a single floated tumor cell. The concentration of the tumor cells in PBS solution was calculated from the number of cells measured by a hemocytometer. The tumor cells were then kept in ice and were injected into mice within 30 minutes. The single floated tumor cells (4×10^7) in 100 μl of PBS solution were subcutaneously injected into the right side of each mouse using an 1 ml syringe.
[…] In the case of the control group, only the same amount of PBS solution was injected. Weights of the mice and tumor size were measured every two days. Size of the tumor was calculated with an equation of length×width×width/2.

Compound: pol{[methoxy poly(ethylene glycol)350][glycylglutamato-trans-(±)-1,2-diaminocyclohexaneplatinum(II)]phosphazene}, {NP(MPEG350)1.2[(GlyGlu)Pt(dach)]0.8}n [Example 4]
- pIC50 (leukemia L1210 cell line [1]): 5.46
- in vivo T/C (%) (leukemia L1210 cell line [2]; dosage 30 mg/kg): 186.8%
- in vivo T/C (%) (leukemia L1210 cell line [2]; dosage 60 mg/kg): 216.8%

Compound: poly{[methoxy poly(ethylene glycol)350][glycylglutamato-trans-(±)-1,2-diaminocyclohexaneplatinum(II)]phosphazene}, {NP(MPEG350)1.2[(GlyGlu)Pt(dach)]0.8}n [Example 2]
- pIC50 (leukemia L1210 cell line [1]): 5.16
- in vivo T/C (%) (leukemia L1210 cell line [2]; dosage 30 mg/kg): 208.1%
- in vivo T/C (%) (leukemia L1210 cell line [2]; dosage 60 mg/kg): > 305.6%

Compound: N.N.[Cl][Pt][Cl] [Cisplatin, reference compound]
- The tumor tissue size after injection of an antitumor agent ([3]; 18 days, dosage 4 mg/kg): 161.36 mm^3
- The tumor tissue size after injection of an antitumor agent ([3]; 32 days, dosage 4 mg/kg): 330.62 mm^3
- The tumor tissue size after injection of an antitumor agent ([3]; 48 days, dosage 4 mg/kg): 588.02 mm^3
- The tumor tissue size after injection of an antitumor agent ([3]; 60 days, dosage 4 mg/kg): 815.79 mm^3
- tumor tissue growth rate / inhibition effect on it (in words) [3]: not significantly different from that of the control group

Compound: poly{[methoxy poly(ethylene glycol)350][glycylglutamato-trans-(±)-1,2-diaminocyclohexaneplatinum(II)]phosphazene}, {NP(MPEG350)1.5[(GlyGlu)Pt(dach)]0.5}n [Example 1]
- pIC50 (leukemia L1210 cell line [1]): 5.09
- in vivo T/C (%) (leukemia L1210 cell line [2]; dosage 30 mg/kg): 178/30%

Compound: poly{[methoxy poly(ethylene glycol)350][glycylglutamato-trans-(±)-1,2-diaminocyclohexaneplatinum(II)]phosphazene}, {NP(MPEG350)1.0[(GlyGlu)Pt(dach)]1.0}n [Example 3]
- pIC50 (leukemia L1210 cell line [1]): 5.47
- in vivo T/C (%) (leukemia L1210 cell line [2]; dosage 30 mg/kg): 194.1%
- in vivo T/C (%) (leukemia L1210 cell line [2]; dosage 60 mg/kg): toxic
- The tumor tissue size after injection of an antitumor agent ([3]; 18 days, dosage 30 mg/kg): 121.92 mm^3
- The tumor tissue size after injection of an antitumor agent ([3]; 18 days, dosage 60 mg/kg): 32.69 mm^3
- The tumor tissue size after injection of an antitumor agent ([3]; 32 days, dosage 30 mg/kg): 210.38 mm^3
- The tumor tissue size after injection of an antitumor agent ([3]; 32 days, dosage 60 mg/kg): 72.08 mm^3
- The tumor tissue size after injection of an antitumor agent ([3]; 48 days, dosage 30 mg/kg): 111.23 mm^3
- The tumor tissue size after injection of an antitumor agent ([3]; 48 days, dosage 60 mg/kg): 65.36 mm^3
- The tumor tissue size after injection of an antitumor agent ([3]; 60 days, dosage 30 mg/kg): 22.71 mm^3
- The tumor tissue size after injection of an antitumor agent ([3]; 60 days, dosage 60 mg/kg): 91.10 mm^3
- tumor tissue growth rate / inhibition effect on it (in words) [3]: outstanding compared with that of cisplatin

Compound: poly{[methoxy poly(ethylene glycol)550][glycylglutamato-trans(±trans-(±)-1,2-diaminocyclohexaneplatinum(II)]phosphazene}, {NP(MPEG350)1.12[(GlyGlu)Pt(dach)]0.88}n [Example 7]
- pIC50 (leukemia L1210 cell line [1]): < 4.40
- in vivo T/C (%) (leukemia L1210 cell line [2]; dosage 30 mg/kg): 228.2%
- in vivo T/C (%) (leukemia L1210 cell line [2]; dosage 60 mg/kg): 209.4%

Compound: poly{[methoxy poly(ethylene glycol)350][glycylglutamato-trans-(±)-1,2-diaminocyclohexaneplatinum(II)]phosphazene}, {NP(MPEG350)1.4[(GlyGlu)Pt(dach)]0.6}n [Example 5]
- pIC50 (leukemia L1210 cell line [1]): 5.21
- in vivo T/C (%) (leukemia L1210 cell line [2]; dosage 30 mg/kg): 244.3%
- in vivo T/C (%) (leukemia L1210 cell line [2]; dosage 60 mg/kg): 231.1%
